The values below come from US9902728B2, “Pyrrolo and pyrazolopyrimidines as ubiquitin-specific protease 7 inhibitors” (Forma Therapeutics, Inc., priority 2014, dated 2018).

The first test deals with T1, USP7 (Homo sapiens, UniProt Q93009).
T1 construct: USP7, construct USP7 (208-1102) 6*His, Viva Biotech; 6xHis (C); purchased Viva Biotech
T1 sequence (Q93009 208-1102): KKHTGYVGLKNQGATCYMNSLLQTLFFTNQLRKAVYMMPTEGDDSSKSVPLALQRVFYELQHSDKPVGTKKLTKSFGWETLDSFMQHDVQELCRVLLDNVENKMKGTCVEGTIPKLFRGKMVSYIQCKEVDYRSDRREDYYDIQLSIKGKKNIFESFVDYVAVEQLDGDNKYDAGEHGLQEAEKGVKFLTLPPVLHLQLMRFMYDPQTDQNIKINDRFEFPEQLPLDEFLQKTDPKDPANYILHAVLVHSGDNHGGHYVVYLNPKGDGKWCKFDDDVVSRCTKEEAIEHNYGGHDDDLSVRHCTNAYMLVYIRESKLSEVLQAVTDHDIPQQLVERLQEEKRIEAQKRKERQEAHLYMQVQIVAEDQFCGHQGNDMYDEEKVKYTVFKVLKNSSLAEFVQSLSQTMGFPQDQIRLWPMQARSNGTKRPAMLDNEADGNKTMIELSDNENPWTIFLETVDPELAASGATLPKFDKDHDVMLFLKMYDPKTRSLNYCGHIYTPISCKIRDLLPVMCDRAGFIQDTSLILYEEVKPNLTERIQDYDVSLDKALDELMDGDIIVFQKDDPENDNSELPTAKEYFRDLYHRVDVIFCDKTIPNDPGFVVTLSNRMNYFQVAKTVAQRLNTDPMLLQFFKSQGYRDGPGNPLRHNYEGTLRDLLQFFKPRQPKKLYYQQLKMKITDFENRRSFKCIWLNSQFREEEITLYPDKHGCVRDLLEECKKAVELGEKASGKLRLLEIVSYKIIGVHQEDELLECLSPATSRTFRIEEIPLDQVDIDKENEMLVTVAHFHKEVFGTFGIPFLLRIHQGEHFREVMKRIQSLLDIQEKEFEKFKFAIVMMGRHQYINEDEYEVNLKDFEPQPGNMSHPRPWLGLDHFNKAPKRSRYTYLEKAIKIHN
Put plainly: USP7 Assay A (Ubitquin-Rhodamine 110 Assay). The conditions noted are these: USP7 activity in USP7 assay A and B (table does not say which assay per compound); read-out: USP7_IC50. The class given is biochemical. The essentials: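 Enzyme and compound sat together for 30 min before Ub-Rh110 was added, in buffer of 20 mM Tris-HCl (pH 8.0), 1 mM GSH, 0.03% BGG and 0.01% Triton X-100.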
Consider `Cc1ccc(-n2ncc3c(=O)n(CC4(O)CCN(C(=O)C[C@@H](C(F)F)n5ccc(F)n5)CC4)cnc32)cc1` [Compound I-797], for which the IC50 lay in the range of 1 to 10 µM. Same read-out and setting: in the case of `O=C(c1cnn(C2CC2)c1)N1CCC(O)(Cn2cnc3c(cnn3-c3ccc(C4CC4)cc3)c2=O)CC1` [Compound I-798] it was 0.2 to 1 µM; in that of `Cn1ccc(NC2CCC(C(=O)N3CCC(O)(Cn4cnc5c(ccn5-c5ccc(F)cc5)c4=O)CC3)CC2)n1` (stereo not shown) [Compound I-1041], 0.2 to 1 µM. Take `O=C(c1ccc(F)cc1)N1CCC(O)(Cn2cnc3c(cnn3-c3ccc(N4CCn5ncnc5C4)cc3)c2=O)CC1` [Compound I-1178]: the IC50 was 1 to 10 µM. Regarding `Cc1nnc(-c2ccc(-n3ncc4c(=O)n(CC5(O)CCN(C(=O)c6ccc(F)cc6)CC5)cnc43)cc2)o1` [Compound I-712], the IC50 fell in the range of 1 to 10 µM.

With `CN1CCC(Oc2ccc(C(=O)N3CCC(O)(Cn4cnc5c(cnn5-c5ccc(Cl)cc5)c4=O)CC3)cn2)C1` (stereo not shown) [Compound I-920], the IC50 is 1 to 10 µM. For the compound `Cn1nccc1O[C@H]1CC[C@H](C(=O)N2CCC(O)(Cn3cnc4c(ccn4-c4ccc(F)cc4)c3=O)CC2)CC1` [Compound I-794], the IC50 lay within 0.2 to 1 µM. Take `Cc1cc(Oc2ccc(C(=O)N3CCC(O)(Cn4cnc5c(cnn5-c5ccc(F)cc5)c4=O)CC3)cc2)no1` [Compound I-563]: the IC50 was 1 to 10 µM. With `CC1(COc2ccc(-n3ncc4c(=O)n(CC5(O)CCN(C(=O)C6(C)CC6)CC5)cnc43)cc2)COC1` [Compound I-1118], the IC50 was less than 0.2 µM.

Regarding `Cn1cc(C(=O)N2CCC(O)(Cn3cnc4c(cnn4-c4ccc(F)cc4)c3=O)CC2)c(Cn2cccn2)n1` [Compound I-921], the IC50 lay within 1 to 10 µM. Regarding `CC1(C(=O)N2CCC(O)(Cn3cnc4c(cnn4-c4ccc(OCC5CC(F)(F)C5)cc4)c3=O)CC2)CC1` [Compound I-1133], the IC50 was less than 0.2 µM. With `O=C(C[C@H](C(F)F)n1cc(Cl)cn1)N1CCC(O)(Cn2cnc3c(cnn3-c3ccc(F)cc3)c2=O)CC1` [Compound I-733], the IC50 is 0.2 to 1 µM.

For `O=C(c1ccc(N2CCN3CCC2CC3)cc1)N1CCC(O)(Cn2cnc3c(cnn3-c3ccc(F)cc3)c2=O)CC1` [Compound I-1682], the IC50 was 1 to 10 µM. The same measure, in the same setting: for `CN1CCN(C(=O)N2CCC(O)(Cn3cnc4c(cnn4-c4ccc(OC5CCC(F)(F)CC5)cc4)c3=O)CC2)CC1` [Compound I-697] the value was greater than 10 µM; for `Cn1nccc1NC1CCC(C(=O)N2CCC(O)(Cn3cnc4c(cnn4-c4ccc(F)cc4)c3=O)CC2)CC1` (stereo not shown) [Compound I-764], 0.2 to 1 µM; for `CC1(O)CCN(c2ccc(-n3ncc4c(=O)n(CC5(O)CCN(C(=O)C6CC6)CC5)cnc43)cc2)C1` (stereo not shown) [Compound I-1657], 1 to 10 µM. The same measure, in the same setting: in the case of `CC1(C(=O)N2CCC(O)(Cn3cnc4c(cnn4-c4ccc(N5CC(C(C)(C)O)C5)cc4)c3=O)CC2)CC1` [Compound I-1674] it was 0.2 to 1 µM; in that of `O=C(C1CCC(Oc2cccc(F)n2)CC1)N1CCC(O)(Cn2cnc3c(cnn3-c3ccc(F)cc3)c2=O)CC1` (stereo not shown) [Compound I-739], less than 0.2 µM; in that of `O=C(C1CC1)N1CCC(O)(Cn2cnc3c(cnn3-c3ccc(N4CCC5(CC4)CC(O)C5)cc3)c2=O)CC1` [Compound I-1739], 1 to 10 µM. Same read-out and setting: for `Cn1ncc2c1CC(C(=O)N1CCC(O)(Cn3cnc4c(cnn4-c4ccc(F)cc4)c3=O)CC1)CC2` (stereo not shown) [Compound I-725] the value was 1 to 10 µM; for `O=C(c1cnc(C2CC2)o1)N1CCC(O)(Cn2cnc3c(ccn3-c3ccc(F)cc3)c2=O)CC1` [Compound I-849], less than 0.2 µM; for `O=C(c1cn(C2CC2)cn1)N1CCC(O)(Cn2cnc3c(cnn3-c3ccc(Cl)cc3)c2=O)CC1` [Compound I-1092], 1 to 10 µM. For `CC1(COc2ccc(-n3ncc4c(=O)n(CC5(O)CCN(C(=O)c6ccc(F)cc6)CC5)cnc43)cc2)COC1` [Compound I-1756], the IC50 lay in the range of 0.2 to 1 µM.

`C[C@]1(O)CCN(c2ccc(-n3ncc4c(=O)n(CC5(O)CCN(C(=O)C[C@@H](C(F)F)n6cccn6)CC5)cnc43)cc2)C1` [Compound I-835]: the IC50 was less than 0.2 µM.

The test is the same for the next values; noted with them: USP7 assay A and B (table does not say which assay per compound); read-out: USP7_IC50.
Consider `O=C(C[C@@H](c1ccccc1)C(F)F)N1CCC(O)(Cn2cnc3c(cnn3-c3ccccc3)c2=O)CC1` [Compound I-1103], for which the IC50 is less than 0.2 µM. On to `O=C(c1ccc(F)cc1)N1CCC(O)(Cn2cnc3c(cnn3-c3ccc(OCC4CCOCC4)cc3)c2=O)CC1` [Compound I-1324], for which the IC50 was 1 to 10 µM. Same read-out and setting: in the case of `Nc1ccc(Cl)cc1C(=O)N1CCC(O)(Cn2cnc3c(cnn3-c3ccccc3)c2=O)CC1` [Compound I-233] it was 0.2 to 1 µM; in that of `Cc1nnc(-c2ccc(C(=O)N3CCC(O)(Cn4cnc5c(cnn5-c5ccc(F)cc5)c4=O)CC3)cc2)o1` [Compound I-911], 1 to 10 µM. Regarding `Nc1cc(-n2ncc3c(=O)n(CC4(O)CCN(C(=O)c5ccc(F)cc5)CC4)cnc32)ccc1F` [Compound I-635], the IC50 lay in the range of 1 to 10 µM. Consider `Cc1ncc(C(=O)N2CCC(O)(Cn3cnc4c(cnn4-c4ccc(F)cc4)c3=O)CC2)o1` [Compound I-531], for which the IC50 was 1 to 10 µM. As for `CN(C)C(=O)N1CCC(O)(Cn2cnc3c(cnn3-c3ccc(NCCN4CCCCC4)cc3)c2=O)CC1` [Compound I-1543], the IC50 was 0.2 to 1 µM. For the compound `COc1ccc(Nc2ccc(-n3ncc4c(=O)n(CC5(O)CCN(C(=O)C6CC6)CC5)cnc43)cc2)cn1` [Compound I-1191], the IC50 was 1 to 10 µM.

Take `Cc1ccc(C(=O)N2CCC(O)(Cn3cnc4c(cnn4-c4ccc(Cl)cc4)c3=O)CC2)cc1F` [Compound I-1523]: the IC50 lay in the range of 1 to 10 µM. On the same count and under the same terms, in the case of `O=C(C[C@H](c1ccccc1)C(F)(F)F)N1CCC(O)(Cn2cnc3c(cnn3-c3ccccc3)c2=O)CC1` [Compound I-141] it was 1 to 10 µM. For the compound `CN(C)C1CCN(c2cccc(-n3ncc4c(=O)n(CC5(O)CCN(C(=O)C6CC6)CC5)cnc43)c2)CC1` [Compound I-1209], the IC50 lay within 0.2 to 1 µM. `O=C(C1CC1)N1CCC(O)(Cn2cnc3c(cnn3-c3ccc(CN4CCCCC4)cc3)c2=O)CC1` [Compound I-431]: the IC50 lay within 1 to 10 µM.

On to `O=C(c1ccc(F)cc1)N1CCC(O)(Cn2cnc3c(cnn3-c3ccc(F)cc3)c2=O)CC1` [Compound I-268], for which the IC50 is 1 to 10 µM. As to `Cc1ccc(-n2ncc3c(=O)n(CC4(O)CCN(C(=O)c5ccc(Oc6ncccn6)cc5)CC4)cnc32)cc1` [Compound I-1063], the IC50 lay within 0.2 to 1 µM.

As for `Cc1noc(C)c1S(=O)(=O)Nc1ccc(-n2ncc3c(=O)n(CC4(O)CCN(C(=O)C5CC5)CC4)cnc32)cc1` [Compound I-1421], the IC50 was 1 to 10 µM.

Turning to `O=C(C1CC1)N1CCC(O)(Cn2cnc3c(cnn3-c3ccc(NS(=O)(=O)c4ccc(Cl)cc4)cc3)c2=O)CC1` [Compound I-1422], the IC50 fell in the range of 1 to 10 µM. For the compound `CS(=N)(=O)c1ccc(-n2ncc3c(=O)n(CC4(O)CCN(C(=O)c5ccc(F)cc5)CC4)cnc32)cc1` (single isomer, unassigned) [Compound I-997, 5-((1-(4-fluorobenzoyl)-4-hydroxypiperidin-4-yl)methyl)-1-(4-(S-methylsulfonimidoyl)phenyl)-1,5-dihydro-4H-pyrazolo[3,4-d]pyrimidin-4-one], the IC50 lay in the range of 1 to 10 µM. In the case of `O=C(C1CC1)N1CCC(O)(Cn2cnc3c(cnn3-c3cccc(-c4cc(F)ccc4CO)c3)c2=O)CC1` [Compound I-403], the IC50 fell in the range of 1 to 10 µM. Take `CN1CCN(c2cc(-n3ncc4c(=O)n(CC5(O)CCN(C(=O)c6ccccc6)CC5)cnc43)ccc2F)CC1` [Compound I-634]: the IC50 lay in the range of 1 to 10 µM.
